Series [1] in a line: Plasma stability assay, mouse plasma. The format is in vitro ADME. The settings on record: 37° C. How it is done: (§1) The plasma stability assay was performed in triplicate by incubating a compound in normal mouse and human plasma at 37° C. At 0, 1, 3, 6, and 24 h, aliquots of the plasma mixture were taken and quenched with 3 volumes of acetonitrile containing an appropriate internal standard. The samples were then vortexed and centrifuged at 14,000 rpm for 5 min. The supernatants were collected and analyzed by LC-MS/MS to determine the remaining percentage at various time points.
(§2) Quantification and analysis of compounds in biological samples were carried out on an AB Sciex QTrap 5500 mass spectrometer coupled with an Agilent 1260 Infinity HPLC. The chromatographic separation of compounds was achieved using a Phenomenex Kinetex C18 column (50×2.1 mm, 2.6 μm), and MS/MS analysis was conducted using an ESI ion source with MRM detection. The MS/MS detection parameters including declustering potential (DP), entrance potential (EP), collision energy (CE), and collision cell exit potential (CXP) were optimized for each compound.

In series [2] the test system is MCF10A cells (normal human mammary cells). The series can be described thus: Cell viability assay (MTT) in MCF10A cells. In kind it is cell-based. The settings on record: MCF-10A, 72 h. How it is done:
MCF10A cells are maintained in minimum essential medium (MEM) (Invitrogen 11095) supplemented with 10% FBS (Invitrogen 16000), 1% 10× non-essential amino acids (NEAA) (Invitrogen 11140), 1% Penicillin/Streptomycin (Invitrogen 15140), 1% GlutaMAX (Invitrogen 35050-061), 20 ng/mL EGF, […] hydrocortisone, 100 ng/mL cholera toxin, 10 μg/mL insulin.
Cells were plated in 96-well plates at 25×10^4 cells/ml. After 24 hours, compounds were added at 9, 3× dilutions in triplicate from 100 uM final concentration in the appropriate growth media. Plates were incubated for 72 hours at 37° C. in a 5% CO2/95% air humidified atmosphere after which time the media was removed and MTT was added in RPMI phenol red free media. The MTT was removed after 3 hours and formazan crystals were solubilized with 200 μL of isopropanol. Plates were read on a Molecular Devices SpectraMax i3 spectrophotometer at 570 nm for formazan and 690 nm for background subtraction. EC50 values were calculated by fitting the data in GraphPad Prism software.

Series [3] can be described thus: Caco-2 permeability assay. In kind it is in vitro ADME. The conditions noted are these: human, pH 7.4. How it is done:
Cell Culture. The human colon adenocarcinoma cell line Caco-2 was purchased from ATCC (American Type Culture Collection, Manassas, Va.), and was cultured in a humidified atmosphere of 5% CO2 at 37° C. Caco-2 cells were cultured in DMEM with 10% FBS, 1% NEAA, 1% GlutaMax and 1% penicillin and streptomycin solution. The culture medium was changed every other day during cell growth and differentiation. On achieving 80-90% confluence, the cells were rinsed with pre-warm DPBS (pH 7.4) and split using trypsin. The cells were then seeded on membranes of Millipore Millicell-24 cell culture device. The transepithelial electrical resistance (TEER) were assessed to reflect membrane integrity using a Millicells® ERS-2 (Millipore, USA). The Caco-2 cell monolayers were used for transport experiments on day 21 post-seeding with TEER values >500 Ω·cm2. Bidirectional Transport Experiments. Before the transport experiments, the cell monolayer was washed three times with HBSS. Then, the plates were incubated in fresh permeability assay buffer (HBSS containing 10 mM glucose and 20 mM HEPES, pH 7.4) at 37° C. The experiments were conducted by spiking test compounds to either the apical (AP, 0.4 mL) or basolateral side (BL, 0.8 mL), while the receiving chamber contained the corresponding volume of pre-warmed permeability assay buffer. Every experiment was repeated in duplicate, and the plates were incubated in an orbital shaker at 37° C., 50 rpm/min. To assess the drug transport, at the incubation time of 20, 40, 60 and 80 min, aliquot was removed and was immediately replenished with an equal volume of permeability assay buffer. The samples were then subjected to LC/MS/MS analysis. The apparent permeability coefficient was indicated by the absorption rate constant Papp. It could be calculated as PBA (measured in BL to AP direction) or PAB (measured in AP to BL direction), using the equation of Papp=(dQ/dt)/(A×C0). dQ/dt is the rate at which the compound appears in the receiver chamber (nmol/s), A is the surface area of the filter membrane (0.7 cm2) and C0 is the initial concentration in the donor chamber (μM). Efflux ratio (ER) was calculated by the equation of ER=PBA/PAB, where PBA is the Papp value measured in BL to AP direction, and PAB is the Papp value measured in AP to BL direction.
On the technique in general: Caco-2 cells form a polarised layer with tight junctions and transporters.

Another series has as its system Panc-1 cells. Kind of series: Cell viability assay (MTT) in Panc-1 cells. The format is cell-based. The conditions noted are these: Homo sapiens, antiproliferative activity, 72 h. The essentials:
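After 24 h plating, Panc-1 cells were exposed for 72 h at 37 °C to compound in a nine-point 3-fold series from 100 uM final, in triplicate. Viability read by MTT reduction (570 nm, 690 nm background); EC50 fitted from the curves.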

The nature of series [4]: Plasma stability assay, human plasma. In kind it is in vitro ADME. The settings on record: 37° C. How it is done: as §1, §2
Series [5] can be described thus: Microsomal stability assay, human liver microsomes. The format is in vitro ADME. The settings on record: pH 7.4; human liver microsomes 0.5 mg/mL, 1 mM NADPH, 1 μM compound; read-out: Microsomal Stability t1/2 Human. On the procedure:
The in vitro microsomal stability assay was conducted in triplicate in mouse and human liver microsomal systems. In a typical incubation, a compound (typically 1 μM final concentration) was spiked into the reaction mixture containing 0.5 mg/mL of liver microsomal protein and 1 mM of NADPH in 0.1 M potassium phosphate buffer (pH 7.4) at 37° C. At various time points, 1 volume of reaction aliquot was taken and quenched with 3 volumes of acetonitrile with an appropriate internal standard. The samples were then vortexed and centrifuged at 14,000 rpm for 5 min. The supernatants were collected and analyzed by LC-MS/MS to determine the in vitro metabolic half-life (t1/2) and intrinsic clearance (CLint). Verapamil was used as a positive control.
as §2
Background: Liver microsomes are a subcellular fraction often used to study metabolism.

For orientation: EC50 means the midpoint of the concentration-response curve. Lower therefore signals higher potency in that assay. As a reminder, the Papp A→B is the apparent permeability from the apical to the basolateral side of a cell layer. As usually defined, the Papp B→A is how fast a substance crosses the layer from the basolateral side.

As to `CNC(=O)c1cccc(Cn2nc(C)c(NC(=O)c3ccc(COc4ccc(C(F)(F)F)cc4)cc3)c2C)c1` [Compound D9c, 3-((3,5-Dimethyl-4-(4-((4-(trifluoromethyl)phenoxy)-methyl)benzamido)-1H-pyrazol-1-yl)methyl)-N-methylbenzamide], the “Plasma Stability (% remaining, 6 h/24 h) Mouse” value in series [1] (6 h) came out at 91%; in series [1] (24 h), 77%. Further, the EC50 in series [2] amounted to 6.7 µM; in the series on Panc-1 cells, 210 nM. In series [3] (apical to basolateral), this molecule returned an apical-to-basolateral permeability (Papp A→B) at 80 min of 8.26 ×10⁻⁶ cm/s. The molecule also returned a Papp B→A at 80 min in series [3] (basolateral to apical) of 19.3 ×10⁻⁶ cm/s. Moreover, the results for the “Plasma Stability (% remaining, 6 h/24 h) Human” value in series [4] (6 h) and in series [4] (24 h) were 99% and 100%, respectively. Also, in series [5], the half-life at 1 μM was determined as 34 min.

For the origin of these results see patent US10357477B2, “Anticancer compounds” (REGENTS OF THE UNIVERSITY OF MINNESOTA, priority 2016, dated 2019).
